The results in this text go back to ChEMBL document CHEMBL4613232, “Novel 3,3-disubstituted oxindole derivatives. Synthesis and evaluation of the anti-proliferative activity” (Bioorg Med Chem Lett, 2020).

For one assay, the system named is MCF7. Briefly: Antiproliferative activity against human MCF7 cells. The class given is functional, cell-based.
Another assay has as its system SW-620. Briefly: Antiproliferative activity against human SW620 cells. The class given is functional, cell-based.
The subject of a further assay is A-375. The assay can be described thus: Antiproliferative activity against human A375 cells. The class given is functional, cell-based.
The subject of the next assay is PBMC. Briefly: Cytotoxicity against human PBMC assessed as reduction in cell viability. The format is cell-based.
A further assay has as its system PC-3. The assay can be described thus: Antiproliferative activity against human PC3 cells. The class given is functional, cell-based.
For a further assay, the system named is MIA PaCa-2. The assay can be described thus: Antiproliferative activity against human MIAPaCa2 cells. The format is functional, cell-based.

Each structure is given as a SMILES string. pIC50: −log10 of the molar value.

For `CCCC1(NC(=O)OC)C(=O)Nc2ccccc21` (centres undefined), the negative-log IC50 (pIC50) – broadly, −log10 of the IC50, conventionally taken in molar units – in the assay on MCF7 is less than 4.30; in the assay on SW-620, less than 4.30; in the assay with A-375, less than 4.30; with PBMC it was less than 4.00.
Take `CCOC(=O)CC1(NC=O)C(=O)N(C(C)=O)c2ccccc21` (centres undefined): the pIC50 in the assay on PC-3 was 4.77; in the assay on MCF7, 4.52; in the assay with SW-620, less than 4.30; in the assay on MIA PaCa-2, less than 4.30; in the assay with A-375, less than 4.30; in the assay with PBMC, less than 4.00.
In the case of `O=C(NC1(Cc2ccccc2)C(=O)Nc2ccc(Br)cc21)c1ccccc1` (centres undefined), the pIC50 was less than 4.30 with PC-3; less than 4.30 with MCF7; less than 4.30 with SW-620; less than 4.30 in the assay with MIA PaCa-2; less than 4.30 in the assay with A-375; less than 4.00 in the assay with PBMC.
Consider `O=CNC1(Cc2ccccc2)C(=O)Nc2ccc(Br)cc21` (centres undefined), for which the pIC50 was 5.05 in the assay on PC-3; 4.75 in the assay with MCF7; 5.01 in the assay with SW-620; 5.13 in the assay on MIA PaCa-2; 5.19 with A-375; 4.12 in the assay on PBMC.
As for `CCOC(=O)N1C(=O)C(Cc2ccccc2)(NC=O)c2cc(Br)ccc21` (centres undefined), the pIC50 in the assay on PC-3 is 4.49; with MCF7 it was less than 4.30; with SW-620 it was less than 4.30; with MIA PaCa-2, less than 4.30; with A-375, less than 4.30; in the assay on PBMC it was less than 4.00.
Take `CCOP(=O)(NC1(Cc2ccccc2)C(=O)Nc2ccc(Br)cc21)OCC` (centres undefined): the pIC50 with PC-3 is less than 4.30; in the assay on MCF7, less than 4.30; in the assay on SW-620, 4.56; in the assay on MIA PaCa-2 it was 4.52; in the assay with A-375 it was less than 4.30; in the assay on PBMC, 4.29. Also, the Activity result in the assay with SW-620 and in the assay on MIA PaCa-2 was “Dose-dependent effect” in each case.
Consider `NC1(Cc2ccccc2)C(=O)Nc2ccccc21` (centres undefined), for which the pIC50 is less than 4.30 with PC-3; less than 4.30 in the assay on MCF7; 4.43 in the assay with SW-620; 4.37 in the assay with MIA PaCa-2; less than 4.30 with A-375; less than 4.00 in the assay on PBMC.
`NC1(Cc2ccccc2)C(=O)Nc2ccc(Br)cc21` (centres undefined): the pIC50 in the assay on PC-3 is less than 4.30; in the assay on MCF7, less than 4.30; with SW-620, less than 4.30; with MIA PaCa-2, less than 4.30; in the assay on A-375 it was less than 4.30; in the assay with PBMC, less than 4.00.
On to `CC(=O)N1C(=O)C(Cc2ccccc2)(NC=O)c2ccccc21` (centres undefined), for which the pIC50 with PC-3 is 4.74; in the assay on MCF7, 4.84; in the assay on SW-620, less than 4.30; in the assay with MIA PaCa-2 it was 4.33; in the assay with A-375, less than 4.30; in the assay on PBMC, 4.34.
